In US5684127A, “Tetrapeptides deriving from dalbaheptide antibiotics” (Gruppo Lepetit SpA, priority 1995, dated 1997):
Converted amounts (≈) assume the structure as drawn.

Columns and labels:
Assay in all cases: in vitro antibacterial activity, MIC in microtiter
[1] = test system: Strep. pneumoniae UC41 (L 44); type: cell-based; details: Todd-Wewitt broth, 0.01% bovine serum albumin, 37° C. 18-24 hours
Method: (§1) The in vitro antibacterial activity of the compounds is determined by means of standard […] tests in microtiter. Iso-Sensitest broth (Oxoid) is used for all bacteria except streptococci (Todd-Wewitt broth, Difco) and enterococci (Mueller-Hinton, Difco). Broth cultures are diluted so that the final inoculum is about 5×10^5 cfu/ml (colony forming units per ml). All broth microdilution MICs are performed in the presence of 0.01% bovine serum albumin (Pentax fraction V, Sigma).

[2] = test system: S. epidermidis clin. isol. (L 533); type: cell-based; details: Iso-Sensitest broth, 0.01% bovine serum albumin, 37° C. 18-24 hours
Method: as §1

[3] = test system: Strep. pyogenes C203 (L 49); type: cell-based; details: Todd-Wewitt broth, 0.01% bovine serum albumin, 37° C. 18-24 hours
Method: as §1

[4] = test system: Enterococcus faecalis ATCC 7,080 (L 149); type: cell-based; details: Mueller-Hinton, 0.01% bovine serum albumin, 37° C. 18-24 hours
Method: as §1

[5] = test system: S. epidermidis ATCC 12,228 (L 147); type: cell-based; details: Iso-Sensitest broth, 0.01% bovine serum albumin, 37° C. 18-24 hours
Method: as §1

[6] = test system: Staph. aureus Tour (L 165); type: cell-based; details: Iso-Sensitest broth, 0.01% bovine serum albumin, 37° C. 18-24 hours
Method: as §1

[7] = test system: S. aureus clin. isol. (L 561); type: cell-based; details: Iso-Sensitest broth, 0.01% bovine serum albumin, 37° C. 18-24 hours
Method: as §1

[8] = test system: S. haemolyticus clin, isol. (L 602); type: cell-based; details: Iso-Sensitest broth, 0.01% bovine serum albumin, 37° C. 18-24 hours
Method: as §1

S. aurens Smith (L 819) = type: cell-based; details: Iso-Sensitest broth, 0.01% bovine serum albumin, 37° C. 18-24 hours
Method: as §1, with “(Todd-[…]” for “(Todd-Wewitt”, “ml).” for “ml). All broth microdilution MICs are performed in the presence of 0.01% bovine serum albumin (Pentax fraction V, Sigma).”

[9] = test system: E. faecalis clin. isol. (L 502); type: cell-based, Enterococcus faecalis; details: Mueller-Hinton, 0.01% bovine serum albumin, 37° C. 18-24 hours
Method: as §1

Compound | MIC [1] [µg/mL] | MIC [2] [µg/mL] | MIC [3] [µg/mL] | MIC [4] [µg/mL] | MIC [5] [µg/mL] | MIC [6] [µg/mL] | MIC [7] [µg/mL] | MIC [8] [µg/mL] | MIC (S. aurens Smith (L 819)) [µg/mL] | MIC [9] [µg/mL]
N[C@H]1C(=O)N[C@@H]2Cc3ccc(c(Cl)c3)Oc3cc4cc(c3O)Oc3ccc(cc3Cl)[C@@H](O)[C@@H]3NC(=O)[C@H](NC(=O)[C@@H]4NC(=O)[C@@H](NC2=O)c2cc(O)cc(c2)Oc2cc1ccc2O)c1ccc(O)c(c1)-c1c(O)cc(O)cc1[C@@H](C(=O)O)NC3=O [teicoplanin aglycon] | 0.13 (≈ 0.108 µM) | 0.016 (≈ 0.0133 µM) | 0.13 (≈ 0.108 µM) | 0.13 (≈ 0.108 µM) | 0.06 (≈ 0.05 µM) | 0.13 (≈ 0.108 µM) | 0.13 (≈ 0.108 µM) | 0.25 (≈ 0.209 µM) | 0.06 (≈ 0.05 µM) | –
(L-phenylalanyl)^3 -(D-lysyl)^15 -aglucoteicoplanin dalbaheptide methyl ester | 0.13 | 0.13 | 0.25 | 0.5 | 0.13 | 0.13 | 0.06 | 0.5 | 0.13 | 16
teicoplanin | 0.13 | 8 | 0.13 | 0.13 | 8 | 0.13 | 8 | 32 | 0.25 | –
